Reference: ChEMBL document CHEMBL4842310, “Cannabichromene and Δ9-Tetrahydrocannabinolic Acid Identified as Lactate Dehydrogenase-A Inhibitors by in Silico and in Vitro Screening” (J Nat Prod, 2021)

Assays:
[1] = target: L-lactate dehydrogenase B chain (Homo sapiens) (UniProt P07195); test: Inhibition of human LDHB assessed as reduction in lactate production using pyruvate as substrate at 10 uM in presence of NADH by spectrophotometric analysis relative to control
[2] = target: T1, L-lactate dehydrogenase A chain (Homo sapiens, UniProt P00338); test: Non-competitive inhibition of human LDHA assessed as reduction in lactate production using pyruvate as substrate in presence of NADH by Lineweaver-Burk plot analysis
[3] = target: T1, L-lactate dehydrogenase A chain; test: Inhibition of human LDHA assessed as reduction in lactate production using pyruvate as substrate at 10 uM in presence of NADH by spectrophotometric analysis relative to control

Chain of L-lactate dehydrogenase B chain (Homo sapiens) (P07195 2-334 limits assumed): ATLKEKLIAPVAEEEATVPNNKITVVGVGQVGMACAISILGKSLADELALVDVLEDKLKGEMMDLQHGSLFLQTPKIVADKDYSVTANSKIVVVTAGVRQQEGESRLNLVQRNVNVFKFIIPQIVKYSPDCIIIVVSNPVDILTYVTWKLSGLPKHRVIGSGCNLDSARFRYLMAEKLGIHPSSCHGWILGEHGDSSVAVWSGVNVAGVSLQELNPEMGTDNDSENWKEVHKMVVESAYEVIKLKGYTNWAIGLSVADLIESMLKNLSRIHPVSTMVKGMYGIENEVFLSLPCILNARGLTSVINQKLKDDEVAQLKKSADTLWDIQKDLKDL

## CCCc1cc(O)c(C/C=C(\C)CCC=C(C)C)c(O)c1
[1]
  inhibition: < 50%

## CCCc1cc2c(c(O)c1C(=O)O)C=CC(C)(CCC=C(C)C)O2 (centres undefined)
[1]
  inhibition: < 50%

## CCCCCc1cc2c(c(O)c1C(=O)O)[C@@H]1C=C(C)CC[C@H]1C(C)(C)O2 [DELTA9-TETRAHYDROCANNABINOLIC ACID A]
[1]
  inhibition: < 50%
[2]
  Ki: 6.5 µM
[3]
  inhibition: > 50%

## CCCCCc1cc2c(c(O)c1C(=O)O)-c1cc(C)ccc1C(C)(C)O2
[1]
  inhibition: < 50%

## CCCCCc1cc(O)c(C/C=C(\C)CCC=C(C)C)c(O)c1
[1]
  inhibition: < 50%

## CCCCCc1cc(O)c2c(c1)OC(C)(C)c1ccc(C)cc1-2
[1]
  inhibition: < 50%

## C=C(C)[C@@H]1CCC(C)=C[C@H]1c1c(O)cc(CCCCC)cc1O [CANNABIDIOL]
[1]
  inhibition: < 50%
[2]
  Ki: 24 µM

## CC(C)=CCC/C(C)=C/Cc1c(O)cc(C)cc1O
[1]
  inhibition: < 50%

## C=C(C)[C@@H]1CCC(C)=C[C@H]1c1c(O)cc(CCCCC)c(C(=O)O)c1O
[1]
  inhibition: < 50%

## CCCCCc1cc(O)c2c(c1)OC(C)(CCC=C(C)C)C=C2 (centres undefined) [CANNABICHROMENE]
[1]
  inhibition: < 50%
[2]
  Ki: 8.5 µM
[3]
  inhibition: > 50%

## C=C(C)[C@@H]1CCC(C)=C[C@H]1c1c(O)cc(CCC)c(C(=O)O)c1O
[1]
  inhibition: < 50%

## CCCc1cc(O)c2c(c1)OC(C)(C)[C@@H]1CCC(C)=C[C@@H]21
[1]
  inhibition: < 50%

## CCCCCc1cc2c(c(O)c1C(=O)O)C=CC(C)(CCC=C(C)C)O2 (centres undefined)
[1]
  inhibition: < 50%

## CCCc1cc2c(c(O)c1C(=O)O)[C@@H]1C=C(C)CC[C@H]1C(C)(C)O2
[1]
  inhibition: < 50%

## CCCCCc1cc(O)c2c(c1)OC(C)(C)[C@@H]1CCC(C)=C[C@@H]21 [DRONABINOL]
[1]
  inhibition: < 50%
[2]
  Ki: 14 µM

## CCCCCc1cc(O)c(C/C=C(\C)CCC=C(C)C)c(O)c1C(=O)O
[1]
  inhibition: < 50%

## C=C(C)[C@@H]1CCC(C)=C[C@H]1c1c(O)cc(CCC)cc1O
[1]
  inhibition: < 50%

## CCCc1cc(O)c(C/C=C(\C)CCC=C(C)C)c(O)c1C(=O)O
[1]
  inhibition: < 50%
